Measured values as given in patent publication US20230131720A1, “[1,3]DIAZINO[5,4-d]PYRIMIDINES AS HER2 INHIBITORS” (Boehringer Ingelheim International GmbH, priority 2020, published 2023).
Like-named read-outs stand apart in the source and are kept apart here.

Columns and labels:
Assay type in all cases: cell-based
Ba/F3 cells EGFR WT = assay: Ba/F3 proliferation assay, EGFR WT (EGF dependent); conditions: Mus musculus, CellTiter-Glo, read-out: GI50 BAF3 EGF dep.
Description: (§1) Plasmids containing HER2 mutants and EGFR WT were obtained from GeneScript. To generate EGFR/HER2-dependent Ba/F3 models, Ba/F3 cells were transduced with retroviruses containing vectors that harbor EGFR WT, HER2 WT or HER2 mutants (YVMA). Platinum-E cells (Cell Biolabs) were used for retrovirus packaging. Retrovirus was added to Ba/F3 cells. To ensure infection, 4 μg/mL polybrene was added and cells were spinfected. Infection efficiency was confirmed by measuring GFP-positive cells using a cell analyzer. Cells with an infection efficiency of 10% to 20% were further cultivated and puromycin selection with 1 μg/mL was initiated. As a control, parental Ba/F3 cells were used to assess the selection status. Selection was considered successful when parental Ba/F3 cells cultures died. To evaluate the transforming potential of HER2 mutations, the growth medium was no longer supplemented with IL-3. Ba/F3 cells harboring the empty vector were used as a control. A switch from IL-3 to EGF was performed for Ba/F3 cells with the EGFR WT known for its dependency on EGF ligand. Approximately ten days before conducting the experiments, puromycin was left out. For proliferation assays (data in table 12 and 14), Ba/F3 cells were seeded into 96-well plates at 5×10^3 cells/100 μL in growth media. Compounds were added by using a HP D3000 Digital Dispenser. All treatments were performed in technical triplicates. Treated cells were incubated for 72 h at 37° C. with 5% CO2. CellTiter-Glo® Luminescent Cell Viability Assay (Promega) was performed and chemoluminescence was measured by using the multilabel Plate Reader VICTOR X4. The raw data were imported into and analyzed with the Boehringer Ingelheim proprietary software MegaLab (curve fitting based on the program PRISM, GraphPad Inc.).

HER2 YVMA = target: T1, HER2 YVMA (Homo sapiens, UniProt P04626, INS775YVMA); assay: pHER2 (ERBB2) YVMA assay (AlphaScreen Surefire, HEK cells); conditions: HEK cells expressing HER2 YVMA
T1 construct: expressed in transfected cells; host or cells: human HEK cells, retroviral transduction, doxycycline-inducible expression
T1 sequence (P04626 with tags, fused parts or gaps INS775YVMA): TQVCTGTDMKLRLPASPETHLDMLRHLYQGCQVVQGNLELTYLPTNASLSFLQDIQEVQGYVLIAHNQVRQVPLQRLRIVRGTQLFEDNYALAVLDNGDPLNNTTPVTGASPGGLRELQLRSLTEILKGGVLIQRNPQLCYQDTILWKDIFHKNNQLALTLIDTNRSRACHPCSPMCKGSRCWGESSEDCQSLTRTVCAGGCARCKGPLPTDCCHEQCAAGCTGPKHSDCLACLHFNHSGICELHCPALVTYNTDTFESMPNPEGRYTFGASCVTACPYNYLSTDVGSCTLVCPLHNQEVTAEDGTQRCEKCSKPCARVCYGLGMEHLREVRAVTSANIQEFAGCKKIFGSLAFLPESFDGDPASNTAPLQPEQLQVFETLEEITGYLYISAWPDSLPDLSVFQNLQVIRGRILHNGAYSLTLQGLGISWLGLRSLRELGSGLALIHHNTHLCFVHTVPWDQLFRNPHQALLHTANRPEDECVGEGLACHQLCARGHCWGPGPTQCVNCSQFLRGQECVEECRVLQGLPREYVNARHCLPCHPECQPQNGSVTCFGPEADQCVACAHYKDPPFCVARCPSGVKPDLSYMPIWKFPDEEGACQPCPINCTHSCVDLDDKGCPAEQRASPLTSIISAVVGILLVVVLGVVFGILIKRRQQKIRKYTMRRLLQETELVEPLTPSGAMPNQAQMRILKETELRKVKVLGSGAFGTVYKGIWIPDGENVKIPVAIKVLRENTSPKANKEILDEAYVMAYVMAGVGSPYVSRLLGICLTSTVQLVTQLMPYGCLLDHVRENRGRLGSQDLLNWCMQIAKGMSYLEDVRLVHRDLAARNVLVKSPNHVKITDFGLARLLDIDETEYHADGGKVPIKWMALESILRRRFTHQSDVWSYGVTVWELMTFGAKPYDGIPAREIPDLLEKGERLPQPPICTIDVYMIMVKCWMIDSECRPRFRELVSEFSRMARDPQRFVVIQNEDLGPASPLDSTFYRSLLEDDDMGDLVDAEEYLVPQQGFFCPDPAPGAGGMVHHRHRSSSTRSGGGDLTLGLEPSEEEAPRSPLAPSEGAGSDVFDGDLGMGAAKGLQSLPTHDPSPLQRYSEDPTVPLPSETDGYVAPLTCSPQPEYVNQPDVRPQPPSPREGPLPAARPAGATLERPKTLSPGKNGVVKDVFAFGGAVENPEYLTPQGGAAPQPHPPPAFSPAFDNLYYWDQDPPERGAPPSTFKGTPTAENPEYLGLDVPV
Description: (§2) For the assay, HEK HER2 YVMA cells were seeded in MEM medium with 10% FBS. 4 hours prior to compound addition, HER2 YVMA expression was induced using 1 μg/ml Doxycycline. […] Subsequently, 60.000 cells/well in 60 μL were added. Cells were incubated with compounds for 4 h at 37° C. […] The mixture was incubated at a temperature of 20-25° C. with shaking (700 rpm) for 20 min. After centrifugation, 4 μL of the lysate were transferred to Proxiplates. […] Plates were shaken for 1 min (1400 rpm) and incubated for 2 h at a temperature of 20-25° C. in the dark.
The results of the assay are provided as IC50 values.

Ba/F3 cells HER2 WT = assay: Ba/F3 proliferation assay, HER2 WT; conditions: Mus musculus, BaF3, 72 h, CellTiter-Glo
Description: as §1

[1] = test system: NCI-H2170 HER2 YVMA cells; assay: Tumor cell line proliferation assay, NCI-H2170 HER2 YVMA; conditions: Homo sapiens, 72 h, CellTiter-Glo, read-out: GI50 NCI H-2170 HER2 YVMA
Description: Homology-directed genome engineering was employed to insert a 12 nucleotide sequence encoding YVMA into Exon 20 of the genomic HER2 locus in NCI-H2170 cells. […] The DNA template containing the HER2 exon 20 YVMA insertion variant was obtained from GenScript. PCR followed by Sanger sequencing was used to confirm the presence of the 12-nucleotide insertion in HER2 Exon 20 resulting in the YVMA amino acid duplication.
(§3) For proliferation assays, NCI-H2170 (HER2 wild type), NCI-H2170 HER2 YVMA and EGFR WT dependent A431 cells were used. NCI-H2170 HER2 YVMA or NCI-H2170 cells were seeded into 96-well plates at 750 cells/60 μL in growth media (RPMI ATCC+10% FBS, +Penicillin/Streptomycin). […] Compounds were added by using a HP D3000 Digital Dispenser one day after plating the cells. All treatments were performed in technical triplicates. Treated cells were incubated for 72 h at 37° C. with 5% CO2. CellTiter-Glo® Luminescent Cell Viability Assay (Promega) was performed and chemoluminescence was measured by using the multilabel Plate Reader VICTOR X4. The raw data were imported into and analyzed with the Boehringer Ingelheim proprietary software MegaLab (curve fitting based on the program PRISM, GraphPad Inc.).

[2] = test system: Ba/F3 cells HER2 mutants (YVMA); assay: Ba/F3 proliferation assay, HER2 YVMA; conditions: Mus musculus, BaF3, 72 h, CellTiter-Glo
Description: as §1

EGFR wild type (WT) = target: T2, EGFR wild type (WT) (Homo sapiens, UniProt P00533); assay: pEGFR assay (AlphaScreen Surefire, HEK cells); conditions: HEK cells expressing EGFR WT
T2 construct: expressed in transfected cells; host or cells: human HEK cells (ATCC CRL-1573), retroviral transduction
T2 sequence (P00533 25-1210): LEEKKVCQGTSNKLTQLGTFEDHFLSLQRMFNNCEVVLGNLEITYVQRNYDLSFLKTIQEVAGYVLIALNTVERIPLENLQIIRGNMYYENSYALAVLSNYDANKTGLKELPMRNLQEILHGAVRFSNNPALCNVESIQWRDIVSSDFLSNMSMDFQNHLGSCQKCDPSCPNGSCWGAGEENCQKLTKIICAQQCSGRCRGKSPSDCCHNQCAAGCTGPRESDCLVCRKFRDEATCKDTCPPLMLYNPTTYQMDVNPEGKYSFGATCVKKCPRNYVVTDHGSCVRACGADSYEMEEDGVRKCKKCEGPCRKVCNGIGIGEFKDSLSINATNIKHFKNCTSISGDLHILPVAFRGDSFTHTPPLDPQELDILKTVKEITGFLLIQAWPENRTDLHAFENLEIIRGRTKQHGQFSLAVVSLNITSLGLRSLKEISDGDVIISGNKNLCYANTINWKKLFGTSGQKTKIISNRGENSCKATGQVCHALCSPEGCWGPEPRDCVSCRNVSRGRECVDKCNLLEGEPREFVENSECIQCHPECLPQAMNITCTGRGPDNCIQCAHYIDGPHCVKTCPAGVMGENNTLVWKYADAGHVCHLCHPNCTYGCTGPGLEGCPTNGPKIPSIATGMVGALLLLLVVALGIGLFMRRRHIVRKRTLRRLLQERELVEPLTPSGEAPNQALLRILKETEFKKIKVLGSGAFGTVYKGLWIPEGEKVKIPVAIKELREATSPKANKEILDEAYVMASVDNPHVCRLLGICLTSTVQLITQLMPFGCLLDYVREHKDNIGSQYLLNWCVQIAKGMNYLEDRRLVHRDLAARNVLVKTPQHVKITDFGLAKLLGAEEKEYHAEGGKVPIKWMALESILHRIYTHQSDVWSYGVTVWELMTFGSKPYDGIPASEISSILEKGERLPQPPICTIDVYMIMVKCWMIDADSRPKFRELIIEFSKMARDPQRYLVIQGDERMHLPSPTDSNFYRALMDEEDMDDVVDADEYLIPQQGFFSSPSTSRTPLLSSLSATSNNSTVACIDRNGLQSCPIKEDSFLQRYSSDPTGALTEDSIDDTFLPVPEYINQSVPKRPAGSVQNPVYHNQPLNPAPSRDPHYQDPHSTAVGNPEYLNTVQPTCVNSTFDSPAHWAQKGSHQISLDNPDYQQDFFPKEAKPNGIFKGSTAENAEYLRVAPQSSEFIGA
Description: This assay quantifies the phosphorylation of EGFR at Tyr1068 and was used to measure the inhibitory effect of compounds on the transgenic EGFR wild type (WT) protein expressed in HEK cells.
as §2, with “Transduced cells were selected using puromycin. p-EGFR Tyr1068 was determined using the AlphaScreen Surefire pEGF Receptor (Tyr1068) Assay (PerkinElmer, TGRERS). For” for “For”, “EGFR WT” for “HER2 YVMA”, “FBS.” for “FBS. 4 hours prior to compound addition, HER2 YVMA expression was induced using 1 μg/ml Doxycycline.”, “C.—with” for “C. with”
This cellular phospho-EGFR (pEGFR) compound dose-response assay quantifies the phosphorylation of EGFR at Tyr1068 in HEK cells expressing EGFR WT. The results of the assay are provided as IC50 values.

[3] = test system: EGFR WT dependent A431 cells; assay: Tumor cell line proliferation assay, A431; conditions: Homo sapiens, A-431, 72 h, CellTiter-Glo, read-out: GI50 A431 EGFR wt amp.
Description: as §3

[4] = test system: NCI-H2170 (HER2 wild type) cells; assay: Tumor cell line proliferation assay, NCI-H2170 (HER2 wild type); conditions: Homo sapiens, 72 h, CellTiter-Glo, read-out: GI50 NCI H-2170 HER2 wt amp.
Description: as §3

[5] = BaF3, EGF instead of IL-3, 72 h
[6] = phosphorylation at Tyr1221/1222, 4 h
[7] = phosphorylation at Tyr1068, 4 h
[8] = BaF3, prior art compounds (Table 14), EGF, 72 h

C=CC(=O)N1CCN(c2ncc3ncnc(Nc4ccc(Oc5ccn6ncnc6c5)c(C)c4)c3n2)CC1 [Example I-1]
GI50 (Ba/F3 cells EGFR WT; [5]): 1370 nM
IC50 (HER2 YVMA; [6]): 3 nM
GI50 (Ba/F3 cells HER2 WT): 1 nM
GI50 [1]: 36 nM
GI50 [2]: 9 nM
IC50 (EGFR wild type (WT); [7]): 153 nM
GI50 [3]: 2180 nM
GI50 [4]: 6 nM

C=CC(=O)N1CCN(c2ncc3ncnc(Nc4cc(Cl)c(Oc5ccn6ncnc6c5)c(Cl)c4)c3n2)CC1 [Example I-3]
GI50 (Ba/F3 cells EGFR WT; [5]): 2220 nM
IC50 (HER2 YVMA; [6]): 10 nM
GI50 (Ba/F3 cells HER2 WT): 2 nM
GI50 [1]: 70 nM
GI50 [2]: 11 nM
IC50 (EGFR wild type (WT); [7]): 371 nM
GI50 [3]: 3830 nM
GI50 [4]: 12 nM

C=CC(=O)N1CCN(c2ncc3ncnc(Nc4ccc(Oc5ccn6ncnc6c5)c(Cl)c4)c3n2)CC1 [Example I-2]
GI50 (Ba/F3 cells EGFR WT; [5]): 670 nM
IC50 (HER2 YVMA; [6]): 2 nM
GI50 (Ba/F3 cells HER2 WT): 1 nM
GI50 [1]: 40 nM
GI50 [2]: 6 nM
IC50 (EGFR wild type (WT); [7]): 62 nM
GI50 [3]: 1570 nM
GI50 [4]: 6 nM

C=CC(=O)N1CCN(c2ncc3ncnc(Nc4ccc(Oc5ccn6ncnc6c5)c(C)c4)c3n2)C[C@H]1C [Example I-6]
GI50 (Ba/F3 cells EGFR WT; [5]): 2650 nM
IC50 (HER2 YVMA; [6]): 6 nM
GI50 [1]: 52 nM
GI50 [2]: 15 nM
IC50 (EGFR wild type (WT); [7]): 252 nM
GI50 [3]: 2640 nM
GI50 [4]: 9 nM

CCOc1cc2ncc(C#N)c(Nc3ccc(OCc4ccccn4)c(Cl)c3)c2cc1NC(=O)/C=C/CN(C)C [neratinib, reference compound]
GI50 (Ba/F3 cells EGFR WT; [8]): 14 nM
GI50 ([1]; prior art compounds (Table 14)): 37 nM
GI50 ([2]; prior art compounds (Table 14)): 5 nM
GI50 ([3]; prior art compounds (Table 14)): 55 nM
GI50 ([4]; prior art compounds (Table 14)): 3 nM

C=CC(=O)Nc1ccc2ncnc(Nc3ccc(Oc4ccn5ncnc5c4)c(C)c3)c2c1 [WO 2007/059257 Ex. 169, reference compound]
GI50 (Ba/F3 cells EGFR WT; [8]): 3560 nM
IC50 (HER2 YVMA; prior art compounds (Table 13), Tyr1221/1222, 4 h): 81 nM
GI50 (Ba/F3 cells HER2 WT; prior art compounds (Table 14)): 40 nM
GI50 ([1]; prior art compounds (Table 14)): 1430 nM
GI50 ([2]; prior art compounds (Table 14)): 334 nM
IC50 (EGFR wild type (WT); prior art compounds (Table 13), Tyr1068, 4 h): 355 nM
GI50 ([3]; prior art compounds (Table 14)): > 5000 nM
GI50 ([4]; prior art compounds (Table 14)): 426 nM

C=CC(=O)N1CCN(c2ncc3ncnc(Nc4ccc(Oc5ccn6ncnc6c5)c(C)c4)c3n2)[C@@H](C)C1 [Example I-8]
GI50 (Ba/F3 cells EGFR WT; [5]): > 5000 nM
IC50 (HER2 YVMA; [6]): 6 nM
GI50 (Ba/F3 cells HER2 WT): 3 nM
GI50 [1]: 91 nM
GI50 [2]: 22 nM
IC50 (EGFR wild type (WT); [7]): 577 nM
GI50 [3]: 3790 nM
GI50 [4]: 14 nM

C=CC(=O)N1CCN(c2ncc3ncnc(Nc4ccc(Oc5ccn6ncnc6c5)c(C)c4)c3n2)C[C@@H]1C [Example I-5]
GI50 (Ba/F3 cells EGFR WT; [5]): > 5000 nM
IC50 (HER2 YVMA; [6]): 7 nM
GI50 (Ba/F3 cells HER2 WT): 4 nM
GI50 [1]: 108 nM
GI50 [2]: 60 nM
IC50 (EGFR wild type (WT); [7]): 840 nM
GI50 [3]: 3640 nM
GI50 [4]: 12 nM

C=CC(=O)N1CCN(c2ncc3ncnc(Nc4ccc(Oc5ccn6ncnc6c5)c(C)c4)c3n2)[C@H](C)C1 [Example I-7]
GI50 (Ba/F3 cells EGFR WT; [5]): > 5000 nM
IC50 (HER2 YVMA; [6]): 7 nM
GI50 (Ba/F3 cells HER2 WT): 4 nM
GI50 [1]: 125 nM
GI50 [2]: 29 nM
IC50 (EGFR wild type (WT); [7]): 1200 nM
GI50 [3]: 3990 nM
GI50 [4]: 13 nM

C=CC(=O)N1CCN(c2ncc3ncnc(Nc4cc(F)c(Oc5ccn6ncnc6c5)c(Cl)c4)c3n2)CC1 [Example I-4]
GI50 (Ba/F3 cells EGFR WT; [5]): 1010 nM
IC50 (HER2 YVMA; [6]): 18 nM
GI50 (Ba/F3 cells HER2 WT): 2 nM
GI50 [1]: 85 nM
GI50 [2]: 20 nM
IC50 (EGFR wild type (WT); [7]): 524 nM
GI50 [3]: > 5000 nM
GI50 [4]: 12 nM
